Test results from PMC2110886 (PLoS ONE, 2007).
Entries after “also recorded” stand apart in the source; their conditions may differ. Where two headings read alike, the source gives them in different places.

Columns and labels:
[1] = cited from earlier work; for mean Cmax: twice daily oral dosing with 75 mg oseltamivir capsule; for mean Cmax / AUC0-12: ref Oseltamivir package insert; for AUC0-12: values reported earlier, 75 mg oseltamivir twice daily
[2] = Steady-state plasma pharmacokinetics, open-label randomized three-way crossover study, drugs alone or in combination; settings: for Tmax / half-life / AUC(0-t) / Cmax: human, in vivo; for effect of amantadine coadministration on PK (in words): oseltamivir 75 mg BID + amantadine 100 mg BID
[3] = Safety and tolerability (adverse events) in the crossover study; settings: eight adverse events in total during the trial; 17 subjects
cytochrome P450 isoforms = tested on: cytochrome P450 isoforms; parameters: method as in Tamiflu package insert; settings: ref Tamiflu package insert; cited from earlier work
[4] = tested on: recombinant amantadine sensitive A/Vietnam/1203/04 (H5N1) virus; settings: mice, lethal challenge, equivalent human therapeutic doses, ref Ilyushina, in press; cited from earlier work
[5] = tested on: all strains of influenza A and B tested, including H5N1; settings: no reference given; cited from earlier work
[6] = parameters: method as in Symmetrel package insert; settings: ref Symmetrel package insert, cited from earlier work
[7] = oseltamivir, combination therapy with amantadine 100 mg BID
[8] = oseltamivir, oseltamivir monotherapy 75 mg BID
[9] = under fasted conditions, ref Tamiflu package insert
[10] = under fed conditions, ref Tamiflu package insert
[11] = oseltamivir carboxylate, combination therapy with amantadine 100 mg BID
[12] = oseltamivir carboxylate, oseltamivir monotherapy 75 mg BID

In the case of `CCOC(=O)C1=C[C@@H](OC(CC)CC)[C@H](NC(C)=O)[C@@H](N)C1` [Oseltamivir, oseltamivir, reference compound], the “exposure to oseltamivir as share of the total exposure” value ([1]; after oral dosing, ref Tamiflu package insert) is listed as “less than 5%”, the “share of absorbed oseltamivir eliminated by conversion to oseltamivir carboxylate” value ([1]; ref Tamiflu package insert) is listed as over 90% and the “mean Cmax” value [1] is listed as 0.0652 µg/mL. The AUC0-12 [1] was 0.112 µg·h/mL, the Tmax [2] was 0.85 h and the half-life [2] was 1.83 h. The AUC(0-t) ([2]; 75 mg) was 0.161 µg·h/mL, the Cmax ([2]; 75 mg) was 0.0602 µg/mL and the Tmax ([2]; 75 mg) was 0.76 h. The half-life ([2]; 75 mg) was 1.85 h, the “effect of amantadine coadministration on PK (in words)” value [2] was “did not meaningfully affect” and the “apparent clearance, geometric mean” value [2, 7] was 505 L/h. The “apparent distribution volume, geometric mean” value (from here on “apparent distribution volume”) [2, 7] was 1329 L, the “apparent clearance, geometric mean” value [2, 8] was 465 L/h and the “apparent distribution volume” value [2, 8] was 1245 L. The “number of adverse events reported, all mild” value [3] was “three”, the “substrate for, or inhibitor of, cytochrome P450 isoforms” value (cytochrome P450 isoforms) was “Neither oseltamivir nor oseltamivir carboxylate is a substrate for, or inhibitor of, cytochrome P450 isoforms; also recorded: Neither oseltamivir nor oseltamivir carboxylate is a substrate for” and the “animals protected from mortality” value [4] was 20%. The “effectiveness (in words)” value [5] was “effective against all strains of influenza A and B tested, including H5N1”.

For `CC(=O)NC12CC3CC(CC(C3)C1)C2` [Acetylamantadine, acetylamantadine], the “plasma acetylamantadine as share of the concurrent amantadine plasma concentration” value ([6]; 5 of 12 healthy volunteers, 200 mg dose of amantadine) is given as “up to 80%”, the “N-acetylated metabolite in human urine, share of the administered dose” value [6] is given as 5-15% and the “detection of acetylamantadine in plasma” value ([6]; remaining seven of 12 volunteers) is given as “not detected”. The “detection of acetylamantadine in plasma” value ([2]; current study, seventeen volunteers, LLOQ approximately 5.00 ng/mL) was “not detected”.

In the case of `CCC(CC)O[C@@H]1C=C(C(=O)O)C[C@H](N)[C@H]1NC(C)=O` [Oseltamivir carboxylate, oseltamivir carboxylate], the “share of an oral dose reaching the systemic circulation as oseltamivir carboxylate” value ([1]; oral oseltamivir phosphate, ref Tamiflu package insert) is given as “At least 75%”, the “mean Cmax” value [1] is given as 0.348 µg/mL and the “area under the plasma concentration time curve” value [1, 9] is given as 6.218 µg·h/mL. For the same compound, the peak plasma concentration [1, 9] was 551 ng/mL, the “area under the plasma concentration time curve” value [1, 10] was 6.069 µg·h/mL and the peak plasma concentration [1, 10] was 441 ng/mL. The AUC0-12 [1] was 2.719 µg·h/mL, the Tmax [2] was 3.07 h and the half-life [2] was 6.15 h. It also gave an AUC(0-t) ([2]; 75 mg) of 3.43 µg·h/mL, a Cmax ([2]; 75 mg) of 0.407 µg/mL and a Tmax ([2]; 75 mg) of 3.22 h. The half-life ([2]; 75 mg) was 6.09 h, the “effect of amantadine coadministration on PK (in words)” value [2] was “did not meaningfully affect” and the “apparent clearance, geometric mean” value [2, 11] was 22.3 L/h. For the same compound, the “apparent distribution volume” value [2, 11] was 197 L, the “apparent clearance, geometric mean” value [2, 12] was 21.9 L/h and the “apparent distribution volume” value [2, 12] was 192 L. The “substrate for, or inhibitor of, cytochrome P450 isoforms” value (cytochrome P450 isoforms) was “Neither oseltamivir nor oseltamivir carboxylate is a substrate for, or inhibitor of, cytochrome P450 isoforms; also recorded: Neither oseltamivir nor oseltamivir carboxylate is a substrate for”.
